Data on eight compounds can be found in ChEMBL document CHEMBL5338704, “Discovery of novel phenylhydrazone-based oxindole-thiolazoles as potent antibacterial agents toward Pseudomonas aeruginosa” (Eur J Med Chem, 2022).

In series [1] the test system is Staphylococcus aureus. The experiment in a line: Antibacterial activity against methicillin resistant Staphylococcus aureus assessed as inhibition of bacterial growth by micro-broth dilution assay. The series is classed as functional. Background: Dilution methods test growth across graded concentrations, often in twofold steps.
In series [2] the test system is Staphylococcus aureus. The experiment in a line: Antibacterial activity against Staphylococcus aureus assessed as inhibition of bacterial growth by micro-broth dilution assay. The series is classed as functional.
Series [3] deals with Staphylococcus aureus. The experiment in a line: Antibacterial activity against Staphylococcus aureus ATCC 25923 assessed as inhibition of bacterial growth by micro-broth dilution assay. The series is classed as functional.
In series [4] the test system is Staphylococcus aureus. The experiment in a line: Antibacterial activity against Staphylococcus aureus ATCC 29213 assessed as inhibition of bacterial growth by micro-broth dilution assay. The series is classed as functional.
A further series deals with Enterococcus faecalis. The experiment in a line: Antibacterial activity against Enterococcus faecalis assessed as inhibition of bacterial growth by micro-broth dilution assay. The series is classed as functional.
In the next series the test system is Klebsiella pneumoniae. The experiment in a line: Antibacterial activity against Klebsiella pneumoniae assessed as inhibition of bacterial growth by micro-broth dilution assay. The series is classed as functional.
Series [5] relates to Escherichia coli. The experiment in a line: Antibacterial activity against Escherichia coli assessed as inhibition of bacterial growth by micro-broth dilution assay. The class given is functional.
Series [6] has as its system Escherichia coli. The experiment in a line: Antibacterial activity against Escherichia coli ATCC 25922 assessed as inhibition of bacterial growth by micro-broth dilution assay. The series is classed as functional.
In series [7] the test system is Pseudomonas aeruginosa. The experiment in a line: Antibacterial activity against Pseudomonas aeruginosa assessed as inhibition of bacterial growth by micro-broth dilution assay. The series is classed as functional.
The test system of series [8] is Pseudomonas aeruginosa. The experiment in a line: Antibacterial activity against Pseudomonas aeruginosa ATCC 27853 assessed as inhibition of bacterial growth by micro-broth dilution assay. The class given is functional.
The test system of series [9] is Acinetobacter baumannii. The experiment in a line: Antibacterial activity against Acinetobacter baumannii assessed as inhibition of bacterial growth by micro-broth dilution assay. The series is classed as functional.
The nature of series [10]: Hemolytic activity in RBC (unknown origin) assessed as hemolysis. The class given is toxicity, cell-based, Erythrocyte. To be noted: red blood cells (erythrocytes).
For series [11], the system named is Acinetobacter baumannii. The experiment in a line: Potency index, ratio of norfloxacin MIC to test compound MIC for antibacterial activity against Acinetobacter baumannii assessed as inhibition of bacterial growth by micro-broth dilution assay. The class given is functional.

Converted amounts (≈) assume the structure as drawn.

For the compound `Cn1nnnc1SCC(O)CN1C(=O)C(=O)c2ccccc21` (configuration not stated), the MIC was found to be 64 µg/mL (≈ 200 µM) in the series with Staphylococcus aureus [1]; 32 µg/mL (≈ 100 µM) with Staphylococcus aureus [2]; 128 µg/mL (≈ 401 µM) in the series with Staphylococcus aureus [3]; 64 µg/mL (≈ 200 µM) with Staphylococcus aureus [4]; 64 µg/mL (≈ 200 µM) in the series with Enterococcus faecalis; 16 µg/mL (≈ 50.1 µM) in the series on Klebsiella pneumoniae. For the same compound, the minimal inhibitory concentration (MIC) with Escherichia coli [5] was found to be 64 µg/mL (≈ 200 µM); in the series with Escherichia coli [6], 16 µg/mL (≈ 50.1 µM); in the series on Pseudomonas aeruginosa [7] it was 64 µg/mL (≈ 200 µM); in the series with Pseudomonas aeruginosa [8] it was 32 µg/mL (≈ 100 µM); with Acinetobacter baumannii [9], 64 µg/mL (≈ 200 µM). In addition, in series [10], the HC50 was found to be 335 µg/mL.
Consider `Cn1nnnc1SCC(O)CN1C(=O)/C(=N\Nc2ccc(C(=O)O)cc2)c2ccccc21` (configuration not stated), for which the minimal inhibitory concentration (MIC) with Staphylococcus aureus [1] came to 4 µg/mL (≈ 8.82 µM); in the series on Staphylococcus aureus [2] it was 16 µg/mL (≈ 35.3 µM); with Staphylococcus aureus [3], 16 µg/mL (≈ 35.3 µM); in the series with Staphylococcus aureus [4], 16 µg/mL (≈ 35.3 µM); with Enterococcus faecalis it was 8 µg/mL (≈ 17.6 µM); with Klebsiella pneumoniae, 32 µg/mL (≈ 70.6 µM). In addition, the minimal inhibitory concentration (MIC) in the series with Escherichia coli [5] is 32 µg/mL (≈ 70.6 µM); in the series with Escherichia coli [6], 16 µg/mL (≈ 35.3 µM); in the series on Pseudomonas aeruginosa [7] it was 128 µg/mL (≈ 282 µM); in the series on Pseudomonas aeruginosa [8] it was 32 µg/mL (≈ 70.6 µM); in the series on Acinetobacter baumannii [9] it was 32 µg/mL (≈ 70.6 µM). In series [10], the 50% haemolytic concentration (HC50) came out at 292 µg/mL.
For the compound `Cn1ccnc1SCC(O)CN1C(=O)/C(=N\Nc2ccccc2)c2ccccc21` (configuration not stated), the MIC is 128 µg/mL (≈ 314 µM) with Staphylococcus aureus [1]; 128 µg/mL (≈ 314 µM) with Staphylococcus aureus [2]; 256 µg/mL (≈ 628 µM) in the series on Staphylococcus aureus [3]; 128 µg/mL (≈ 314 µM) with Staphylococcus aureus [4]; 128 µg/mL (≈ 314 µM) with Enterococcus faecalis; 128 µg/mL (≈ 314 µM) in the series on Klebsiella pneumoniae. Also, the MIC with Escherichia coli [5] was 128 µg/mL (≈ 314 µM); with Escherichia coli [6], 128 µg/mL (≈ 314 µM); in the series on Pseudomonas aeruginosa [7] it was 256 µg/mL (≈ 628 µM); with Pseudomonas aeruginosa [8], 128 µg/mL (≈ 314 µM); with Acinetobacter baumannii [9], 128 µg/mL (≈ 314 µM). In series [10], the HC50 worked out at 441 µg/mL.
Turning to `O=C1/C(=N\Nc2ccc(Cl)cc2)c2ccccc2N1CC(O)CSc1nc[nH]n1` (configuration not stated), the minimum inhibitory concentration (MIC) was found to be 16 µg/mL (≈ 37.3 µM) with Staphylococcus aureus [1]; 32 µg/mL (≈ 74.6 µM) with Staphylococcus aureus [2]; 16 µg/mL (≈ 37.3 µM) with Staphylococcus aureus [3]; 8 µg/mL (≈ 18.7 µM) in the series with Staphylococcus aureus [4]; 4 µg/mL (≈ 9.33 µM) in the series with Enterococcus faecalis; 4 µg/mL (≈ 9.33 µM) in the series with Klebsiella pneumoniae. Further, the minimal inhibitory concentration (MIC) with Escherichia coli [5] was 16 µg/mL (≈ 37.3 µM); in the series with Escherichia coli [6], 8 µg/mL (≈ 18.7 µM); with Pseudomonas aeruginosa [7], 16 µg/mL (≈ 37.3 µM); in the series on Pseudomonas aeruginosa [8] it was 32 µg/mL (≈ 74.6 µM); in the series with Acinetobacter baumannii [9], 128 µg/mL (≈ 298 µM). The concentration for 50% haemolysis (HC50) in series [10] worked out at 350 µg/mL.
For the compound `Cc1ccc(N/N=C2\C(=O)N(CC(O)CSc3nnnn3C)c3ccccc32)cc1` (configuration not stated), the minimum inhibitory concentration (MIC) in the series with Staphylococcus aureus [1] came to 8 µg/mL (≈ 18.9 µM); in the series on Staphylococcus aureus [2], 2 µg/mL (≈ 4.72 µM); in the series with Staphylococcus aureus [3], 4 µg/mL (≈ 9.45 µM); in the series on Staphylococcus aureus [4] it was 16 µg/mL (≈ 37.8 µM); with Enterococcus faecalis it was 8 µg/mL (≈ 18.9 µM); with Klebsiella pneumoniae it was 16 µg/mL (≈ 37.8 µM). For the same compound, the MIC in the series on Escherichia coli [5] was 32 µg/mL (≈ 75.6 µM); with Escherichia coli [6], 64 µg/mL (≈ 151 µM); in the series with Pseudomonas aeruginosa [7], 2 µg/mL (≈ 4.72 µM); in the series on Pseudomonas aeruginosa [8] it was 4 µg/mL (≈ 9.45 µM); in the series with Acinetobacter baumannii [9], 2 µg/mL (≈ 4.72 µM). Also, the 50% haemolytic concentration (HC50) in series [10] is 383 µg/mL. The Ratio with Acinetobacter baumannii [11] amounted to 2.
On to `Cc1ccc(N/N=C2\C(=O)N(CC(O)CSc3nc[nH]n3)c3ccccc32)cc1` (configuration not stated), for which the minimum inhibitory concentration (MIC) in the series on Staphylococcus aureus [1] turned out to be 16 µg/mL (≈ 39.2 µM); in the series on Staphylococcus aureus [2], 32 µg/mL (≈ 78.3 µM); in the series on Staphylococcus aureus [3], 4 µg/mL (≈ 9.79 µM); in the series with Staphylococcus aureus [4], 8 µg/mL (≈ 19.6 µM); in the series on Enterococcus faecalis, 2 µg/mL (≈ 4.9 µM); in the series on Klebsiella pneumoniae, 32 µg/mL (≈ 78.3 µM). The minimal inhibitory concentration (MIC) was determined as 32 µg/mL (≈ 78.3 µM) in the series with Escherichia coli [5]; 32 µg/mL (≈ 78.3 µM) with Escherichia coli [6]; 64 µg/mL (≈ 157 µM) in the series on Pseudomonas aeruginosa [7]; 8 µg/mL (≈ 19.6 µM) in the series on Pseudomonas aeruginosa [8]; 16 µg/mL (≈ 39.2 µM) in the series on Acinetobacter baumannii [9]. In addition, the HC50 in series [10] was determined as 416 µg/mL.
Take `O=C1/C(=N\Nc2ccccc2)c2ccccc2N1CC(O)CSc1nc[nH]n1` (configuration not stated): the MIC with Staphylococcus aureus [1] stood at 128 µg/mL (≈ 324 µM); in the series with Staphylococcus aureus [2], 32 µg/mL (≈ 81.1 µM); in the series with Staphylococcus aureus [3] it was 16 µg/mL (≈ 40.6 µM); with Staphylococcus aureus [4], 128 µg/mL (≈ 324 µM); with Enterococcus faecalis, 32 µg/mL (≈ 81.1 µM); in the series with Klebsiella pneumoniae it was 128 µg/mL (≈ 324 µM). The minimum inhibitory concentration (MIC) in the series with Escherichia coli [5] stood at 128 µg/mL (≈ 324 µM); with Escherichia coli [6], 64 µg/mL (≈ 162 µM); in the series with Pseudomonas aeruginosa [7], 16 µg/mL (≈ 40.6 µM); in the series with Pseudomonas aeruginosa [8] it was 128 µg/mL (≈ 324 µM); with Acinetobacter baumannii [9], 128 µg/mL (≈ 324 µM). Further, the HC50 in series [10] was 375 µg/mL.
`Cc1ccc(N/N=C2\C(=O)N(CC(O)CSc3nccn3C)c3ccccc32)cc1` (configuration not stated): the MIC in the series with Staphylococcus aureus [1] is 256 µg/mL (≈ 607 µM); with Staphylococcus aureus [2] it was 128 µg/mL (≈ 304 µM); in the series with Staphylococcus aureus [3], 128 µg/mL (≈ 304 µM); with Staphylococcus aureus [4], 256 µg/mL (≈ 607 µM); in the series on Enterococcus faecalis, 128 µg/mL (≈ 304 µM); in the series on Klebsiella pneumoniae it was 128 µg/mL (≈ 304 µM). For the same compound, the MIC in the series on Escherichia coli [5] was determined as 64 µg/mL (≈ 152 µM); in the series with Escherichia coli [6], 128 µg/mL (≈ 304 µM); in the series on Pseudomonas aeruginosa [7], 128 µg/mL (≈ 304 µM); in the series with Pseudomonas aeruginosa [8], 256 µg/mL (≈ 607 µM); with Acinetobacter baumannii [9], 128 µg/mL (≈ 304 µM). In addition, the HC50 in series [10] was found to be 358 µg/mL.

What is called MIC is the smallest concentration in the dilution series that meets the test's criterion for growth inhibition. In general, HC50 refers to the concentration giving 50% haemolysis.
